# In ChEMBL document CHEMBL1129361, “Modulators of leukotriene biosynthesis and receptor activation” (J Med Chem, 1996):
# What was measured:
# Mus musculus [1] = assay: Compound was tested in vivo inhibitory activity against LTB4 induced mouse peritonitis (orally); assay type: functional; settings: po
# Cavia porcellus [2] = assay: Compound was tested in vivo inhibitory activity against AA induced ear edema; assay type: functional
# [3] = biological target: T1, Cysteinyl leukotriene receptor (Homo sapiens, UniProt Q9Y271+Q9NS75); assay: Binding affinity against Cysteinyl leukotriene D4 receptor; assay type: protein assay
# T1 sequence (Q9Y271 whole entry): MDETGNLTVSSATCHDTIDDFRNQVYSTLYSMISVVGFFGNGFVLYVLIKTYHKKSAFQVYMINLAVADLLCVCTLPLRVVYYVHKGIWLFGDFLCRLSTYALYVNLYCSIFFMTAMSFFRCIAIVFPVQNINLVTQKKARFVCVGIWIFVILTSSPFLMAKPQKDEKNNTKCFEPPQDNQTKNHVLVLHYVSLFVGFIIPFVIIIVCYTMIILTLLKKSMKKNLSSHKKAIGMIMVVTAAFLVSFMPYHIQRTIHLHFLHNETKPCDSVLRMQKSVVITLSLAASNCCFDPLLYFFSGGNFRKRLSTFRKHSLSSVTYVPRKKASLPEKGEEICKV
# T1 sequence (Q9NS75 whole entry): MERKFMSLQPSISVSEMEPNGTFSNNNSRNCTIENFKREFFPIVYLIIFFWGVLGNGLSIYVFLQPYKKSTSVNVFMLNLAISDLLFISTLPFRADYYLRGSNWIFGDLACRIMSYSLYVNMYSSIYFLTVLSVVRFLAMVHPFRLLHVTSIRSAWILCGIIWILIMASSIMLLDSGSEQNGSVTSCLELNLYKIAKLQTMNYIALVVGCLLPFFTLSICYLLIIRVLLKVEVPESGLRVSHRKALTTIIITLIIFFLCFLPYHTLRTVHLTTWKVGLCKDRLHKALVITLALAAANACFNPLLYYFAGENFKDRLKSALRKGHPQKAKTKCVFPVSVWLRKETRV
# Cavia porcellus [4] = species on record: Cavia porcellus; assay: Compound was evaluated for LTD4 induced against guinea pig trachea contraction; assay type: functional
# [5] = Phase 1 oral half life was determined; assay type: ADME, organism-based; settings: human, in vivo
# Cavia porcellus [6] = assay: Compound was tested for in vivo inhibition on gp AA bronchospasm.; assay type: functional; settings: Bronchiole
# Cavia porcellus [7] = assay: Compound was tested for in vivo inhibition on gp antigen bronchospasm.; assay type: functional; settings: Bronchiole
# Homo sapiens [8] = species on record: Homo sapiens; assay: Compound was tested for in vitro inhibition on human whole blood.; assay type: functional
# Mus musculus [9] = assay: Compound was tested for in vivo inhibition on mouse AA ear edema.; assay type: functional
# Homo sapiens [10] = species on record: Homo sapiens; assay: Compound was tested for in vitro inhibition on human PMNL.; assay type: functional
# RBL-1 [11] = assay: Compound was tested for in vitro inhibition on broken RBL-1.; assay type: functional; settings: Rattus norvegicus
# Rattus norvegicus [12] = assay: Compound was tested for in vivo inhibition on rat peritoneal anaphylaxis.; assay type: functional
# Cavia porcellus [13] = assay: Compound was tested for in vivo inhibition against gp antigen bronchospasm; assay type: functional; settings: Bronchiole
# Homo sapiens [14] = species on record: Homo sapiens; assay: Compound was tested for in vitro inhibition against human whole blood; assay type: functional
# Mus musculus [15] = assay: Compound was tested for in vivo inhibition against mouse AA ear edema; assay type: functional
# Mus musculus [16] = species on record: Mus musculus; assay: Compound was tested for in vitro inhibition against murine macrophage; assay type: functional
# Rattus norvegicus [17] = assay: Compound was tested for in vivo inhibition against rat zymosan-inflamed air pouch; assay type: functional
# Homo sapiens [18] = species on record: Homo sapiens; assay: Compound was tested in vitro inhibitory activity against human neutrophil CD11b/CD18.; assay type: functional
# Homo sapiens [19] = assay: Fold shift in LTD4 dose response curve following 250 mg oral dose.; assay type: functional
# [20] = biological target: T2, Cysteinyl leukotriene receptor 1 (Homo sapiens, UniProt Q9Y271); assay: Compound was tested for inhibitory activity against LTD4 (leukotriene).; assay type: functional
# T2 sequence (Q9Y271 whole entry): T1 sequence (Q9Y271 whole entry)
# Cavia porcellus [21] = assay: Compound was tested for in vivo inhibition against antigen bronchospasm; assay type: functional; settings: Bronchiole
# Phosphodiesterase 3 = Phosphodiesterase 3 (Homo sapiens, UniProt Q14432+Q13370); assay: Inhibition of Phosphodiesterase 3; assay type: protein assay
# Cavia porcellus [22] = species on record: Cavia porcellus; assay: Compound was tested for in vitro inhibition against broken guinea pig peritoneal exudate cells; assay type: functional
# Phosphodiesterase 4 = Phosphodiesterase 4 (Homo sapiens, UniProt P27815+Q08499+Q07343+Q08493); assay: Inhibition of Phosphodiesterase 4; assay type: protein assay
# Homo sapiens [23] = species on record: Homo sapiens; assay: Compound was tested for in vitro inhibition against human PMNL; assay type: functional
# RBL-2H3 = assay: Compound was tested for in vitro inhibition against 5-LO translocation in rat basophilic leukemia cells (RBL-2H3); assay type: functional, cell-based
# Rattus norvegicus [24] = species on record: Rattus norvegicus; assay: Compound was tested for in vitro inhibition against rat blood; assay type: functional
# [25] = phase 1 oral half life at a dose 50 mg - 750 mg.; assay type: ADME, organism-based; settings: human, in vivo
# Cavia porcellus [26] = assay: (§1) Compound was tested for in vivo inhibition against gp antigen bronchospasm.; assay type: functional; settings: Bronchiole
# Homo sapiens [27] = species on record: Homo sapiens; assay: Compound was tested for in vitro inhibition against human whole blood.; assay type: functional
# Mus musculus [28] = assay: Compound was tested for in vivo inhibition against mouse AA ear edema.; assay type: functional
# Homo sapiens [29] = species on record: Homo sapiens; assay: Compound was tested for in vitro inhibition against human PMNL.; assay type: functional
# Rattus norvegicus [30] = assay: Compound was tested for in vivo inhibition against rat zymosan induced exudate.; assay type: functional
# Rattus norvegicus [31] = species on record: Rattus norvegicus; assay: Compound was tested for in vitro inhibition against Rat PMNL; assay type: functional
# Cavia porcellus [32] = assay: Compound was tested in vivo for LTB4 induced neutrophil chemotaxis in guinea pig.(orally) at duration 21 h; assay type: functional; settings: po
# Homo sapiens [33] = species on record: Homo sapiens; assay: Compound was tested in vitro for inhibitory activity in LTB4 induced chemotaxis; assay type: functional, organism-based
# Homo sapiens [34] = species on record: Homo sapiens; assay: Compound was tested in vitro for inhibitory activity in LTB4 induced neutrophil degranulation.; assay type: functional, organism-based
# [35] = biological target: Leukotriene B4 receptor 1 (Homo sapiens, UniProt Q15722); assay: Compound was tested for inhibitory activity against human neutrophil LTB4 receptor binding
# Sequence of Leukotriene B4 receptor 1 (Q15722 whole entry): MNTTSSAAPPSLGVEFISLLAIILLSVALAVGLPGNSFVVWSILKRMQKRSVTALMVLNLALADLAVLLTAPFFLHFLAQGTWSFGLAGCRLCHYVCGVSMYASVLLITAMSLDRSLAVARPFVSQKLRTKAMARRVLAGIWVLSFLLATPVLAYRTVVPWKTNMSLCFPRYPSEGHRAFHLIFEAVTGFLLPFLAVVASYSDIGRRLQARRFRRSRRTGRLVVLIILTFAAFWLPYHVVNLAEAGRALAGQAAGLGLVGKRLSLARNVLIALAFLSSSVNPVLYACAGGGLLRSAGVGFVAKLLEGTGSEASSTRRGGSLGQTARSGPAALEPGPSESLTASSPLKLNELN
# Homo sapiens [36] = assay: Compound was tested for fold shift in LTD4 dose response curve following 1 g oral dose; assay type: functional
# Homo sapiens [37] = assay: Fold shift in LTD4 dose response curve following 280 mg intravenous dose in asthmatic patients.; assay type: functional
# Homo sapiens [38] = assay: LTD4 induced broncho constriction (shift in dose response curve 2 hr following 800 mg oral dose); assay type: functional
# [39] = phase 1 oral half life at a dose 200 mg.; assay type: ADME, organism-based; settings: human, in vivo
# Cavia porcellus [40] = assay: Compound was tested for in vivo inhibition against gp AA bronchospasm.; assay type: functional; settings: Bronchiole
# [41] = as §1; assay type: functional; settings: Cavia porcellus, Bronchiole
# RBL-1 [42] = assay: Compound was tested for in vitro inhibition against broken RBL-1.; assay type: functional; settings: Rattus norvegicus
# Rattus norvegicus [43] = assay: Compound was tested for in vivo inhibition against rat peritoneal anaphylaxis.; assay type: functional
# Cavia porcellus [44] = species on record: Cavia porcellus; assay: Compound was tested for LTD4 induced guinea pig trachea contraction.; assay type: functional
# Homo sapiens [45] = assay: Compound was shown 8 fold shift in LTD4 dose response curve 2 hours after 250 mg oral dose.; assay type: functional
smiles,measurement,setting,value
COc1ccc(CCCCCCCCOc2ccc(CSCc3cccc(C(=O)O)c3)nc2/C=C/C(=O)O)cc1,ED50,Mus musculus [1],7.1 mg/kg
same,ED50,Cavia porcellus [2],0.58 mg ear-1
CCCCCC(O)c1cccc(OCc2ccc3ccccc3n2)c1 (stereo unspecified) [REV-5901],Ki,[3],700 nM
same,pKB,Cavia porcellus [4],5.5
CC(c1cc2ccccc2s1)N(O)C(N)=O (stereo unspecified) [ZILEUTON],half-life,[5],3 h
same,ED50,Cavia porcellus [6],18 mg/kg
same,ED50,Cavia porcellus [7],12 mg/kg
same,IC50,Homo sapiens [8],700 nM
same,ED50,Mus musculus [9],31 mg/kg
same,IC50,Homo sapiens [10],600 nM
same,IC50,RBL-1 [11],100 nM
same,ED50,Rattus norvegicus [12],3 mg/kg
COC1(c2cc(F)cc(OCc3ccc4c(ccc(=O)n4C)c3)c2)CCOCC1 [ZD-2138],ED50,Cavia porcellus [13],0.1 mg/kg
same,IC50,Homo sapiens [14],20 nM
same,ED50,Mus musculus [15],1.8 mg/kg
same,IC50,Mus musculus [16],3 nM
same,ED50,Rattus norvegicus [17],0.3 mg/kg
CCc1cc(-c2ccc(F)cc2)c(O)cc1OCCCOc1ccc2c(=O)c3cc(C(=O)O)ccc3oc2c1CCC(=O)O,IC50,Homo sapiens [18],1.2 nM
O=C(O)c1ccccc1Nc1cccc(OCc2ccc3ccccc3n2)c1 [SR-2640],Activity,Homo sapiens [19],<2
same,IC50,[20],23 nM
C[C@H](C(=O)O)c1ccc2ccc(OCc3ccc4ccccc4n3)cc2c1.NC(CO)(CO)CO,ED50,Cavia porcellus [21],7.3 mg/kg
same,IC50,Mus musculus [16],160 nM
same,IC50,Phosphodiesterase 3,15800 nM
same,IC50,Cavia porcellus [22],5700 nM
same,IC50,Phosphodiesterase 4,8900 nM
same,IC50,Homo sapiens [23],1200 nM
same,IC50,RBL-2H3,53 nM
same,IC50,Rattus norvegicus [24],8100 nM
O=C(O)[C@@H](c1ccc(OCc2ccc3ccccc3n2)cc1)C1CCCC1 [VELIFLAPON],half-life,[25],4 h
same,ED50,Cavia porcellus [26],6.3 mg/kg
same,IC50,Homo sapiens [27],11600 nM
same,ED50,Mus musculus [28],49 mg/kg
same,IC50,Homo sapiens [29],220 nM
same,ED50,Rattus norvegicus [30],8 mg/kg
same,IC50,Rattus norvegicus [31],26 nM
CCCc1c(OCCCOc2ccc(C(=O)NC)c(OC)c2CC2CC2)ccc2c1OC(CCC(=O)O)CC2 (stereo unspecified),ED50,Cavia porcellus [32],0.09 mg/kg
same,IC50,Homo sapiens [33],38 nM
same,IC50,Homo sapiens [34],29 nM
same,IC50,[35],1.5 nM
CCCc1c(OCCCSc2ccc([C@@H](O)[C@H](C)CC(=O)O)cc2)ccc(C(C)=O)c1O [L-649923],Ki,[3],400 nM
same,Activity,Homo sapiens [36],3.8
CCCc1c(OCCCS(=O)(=O)c2ccc(C(=O)CCC(=O)O)cc2)ccc(C(C)=O)c1O [L-648051],Ki,[3],6200 nM
CN(C)C(=O)CCSC(SCCC(=O)[O-])c1cccc(/C=C/c2ccc3ccc(Cl)cc3n2)c1.[Na+] (stereo unspecified),Ki,[3],0.2 nM
same,Activity,Homo sapiens [37],>83
c1ccc(Cc2nn[nH]n2)c(COc2ccc(OCc3ccc4ccccc4n3)cc2)c1 [RG-12525],Ki,[3],3 nM
same,Activity,Homo sapiens [38],7.5
C[C@H](C#Cc1ccc(Oc2ccc(F)cc2)o1)N(O)C(N)=O,half-life,[39],7 h
same,ED50,Cavia porcellus [40],2 mg/kg
same,ED50,[41],2.5 mg/kg
same,IC50,Homo sapiens [27],80 nM
same,ED50,Mus musculus [28],3 mg/kg
same,IC50,Homo sapiens [29],25 nM
same,IC50,RBL-1 [42],54 nM
same,ED50,Rattus norvegicus [43],1.5 mg/kg
O=C(O)CC[C@@H](/C=C\Cc1ccc(OCCCCOc2ccccc2)cc1)Sc1ccc(C(=O)O)cc1,pKB,Cavia porcellus [44],8.4
same,Activity,Homo sapiens [45],8
